Values after ≈ are worked out from the molar mass of the structure shown. Active and inactive are the calls of the source. The calls are words filed in the database; no cut-off is given here.
How the values were obtained:
[1] = test system: Bacillus subtilis; assay: Antibacterial activity against Bacillus subtilis ATCC 6633 assessed as bacterial growth inhibition incubated for 18 hrs by CLSI based micro-dilution broth method; assay type: functional
[2] = test system: Enterococcus faecalis; assay: Antibacterial activity against Enterococcus faecalis ATCC 19433 assessed as bacterial growth inhibition incubated for 18 hrs by micro-dilution broth method; assay type: functional
[3] = test system: Streptococcus pyogenes; assay: Antibacterial activity against Streptococcus pyogenes ATCC 12344 assessed as bacterial growth inhibition incubated for 18 hrs by micro-dilution broth method; assay type: functional
[4] = test system: Staphylococcus aureus; assay: Antibacterial activity against Staphylococcus aureus ATCC 25923 assessed as bacterial growth inhibition incubated for 18 hrs by micro-dilution broth method; assay type: functional
[5] = test system: Escherichia coli; assay: Antibacterial activity against Escherichia coli CCUG assessed as bacterial growth inhibition incubated for 18 hrs by micro-dilution broth method; assay type: functional
[6] = test system: Klebsiella pneumoniae; assay: Antibacterial activity against Klebsiella pneumoniae ATCC 13833 assessed as bacterial growth inhibition incubated for 18 hrs by micro-dilution broth method; assay type: functional
[7] = test system: Acinetobacter baumannii; assay: Antibacterial activity against Acinetobacter baumannii ATCC 17978 assessed as bacterial growth inhibition incubated for 18 hrs by micro-dilution broth method; assay type: functional
[8] = test system: Pseudomonas aeruginosa; assay: Antibacterial activity against Pseudomonas aeruginosa ATCC 27853 assessed as bacterial growth inhibition incubated for 18 hrs by micro-dilution broth method; assay type: functional
[9] = test system: Lipid bilayer; assay: Binding affinity to bacterial membrane mimic POPG large unilamellar vesicle assessed as hyperchromic shift at 125 uM measured after 1 hr by UV-Vis spectrophotometric analysis
[10] = test system: Lipid bilayer; assay: Binding affinity to bacterial membrane mimic POPG large unilamellar vesicle assessed as bathochromic shift at 125 uM measured at t = 0 by UV-Vis spectrophotometric analysis
[11] = test system: Enterobacter cloacae; assay: Antibacterial activity against Enterobacter cloacae VA-417/02 assessed as bacterial growth inhibition incubated for 18 hrs by CLSI based micro-dilution broth method; assay type: functional
[12] = test system: Klebsiella pneumoniae; assay: Antibacterial activity against pan drug-resistant Klebsiella pneumoniae S1-081Rb assessed as bacterial growth inhibition incubated for 18 hrs by CLSI based micro-dilution broth method; assay type: functional
[13] = test system: Acinetobacter baumannii; assay: Antibacterial activity against Acinetobacter baumannii AC-54/97 assessed as bacterial growth inhibition incubated for 18 hrs by CLSI based micro-dilution broth method; assay type: functional

MIC [1] [µg/mL]	MIC [2] [µg/mL]	MIC [3] [µg/mL]	MIC [4] [µg/mL]	MIC [5] [µg/mL]	MIC [6] [µg/mL]	MIC [7] [µg/mL]	MIC [8] [µg/mL]	Molecule	Activity [9]	Activity [10]	MBC [11] [µg/mL]	MIC [11] [µg/mL]	MBC [12] [µg/mL]	MIC [12] [µg/mL]	MBC [13] [µg/mL]	MIC [13] [µg/mL]
4 (≈ 7.03 µM)	16 (≈ 28.1 µM)	4 (≈ 7.03 µM)	8 (≈ 14.1 µM)	32 (≈ 56.2 µM)	16 (≈ 28.1 µM)	16 (≈ 28.1 µM)	32 (≈ 56.2 µM)	NCCCCCCCCN(CCCCCCCCN)C(=O)N(CCCCCCCCN)CCCCCCCCN								
4 (≈ 6.55 µM)	32 (≈ 52.4 µM)	16 (≈ 26.2 µM)	2 (≈ 3.27 µM)	32 (≈ 52.4 µM)	64 (≈ 105 µM)	64 (≈ 105 µM)	128 (≈ 209 µM)	N=C(N)NCCCCCCCCN(CCCCCCCCN)C(=O)N(CCCCCCCCN)CCCCCCCCN	Active	Active						
> 128	> 128	> 128	> 128	> 128	> 128	> 128	> 128	CCCCCCCCN(CCCCCCCC)C(=O)N(CCCCCCCC)CCCCCCCC								
0.5 (≈ 0.766 µM)	8 (≈ 12.2 µM)	0.25 (≈ 0.383 µM)	0.5 (≈ 0.766 µM)	2 (≈ 3.06 µM)	16 (≈ 24.5 µM)	16 (≈ 24.5 µM)	32 (≈ 49 µM)	N=C(N)NCCCCCCCCN(CCCCCCCCNC(=N)N)C(=O)N(CCCCCCCCN)CCCCCCCCN								
> 128	64 (≈ 126 µM)	8 (≈ 15.8 µM)	128 (≈ 253 µM)	64 (≈ 126 µM)	> 128		> 128	N=C(NCCCCCCCCNC(=O)NCCCCCCCCNC(=N)NCC1CC1)NCC1CC1								
32 (≈ 59.2 µM)	> 128	128 (≈ 237 µM)	128 (≈ 237 µM)	> 128	> 128	> 128	> 128	N=C(N)NCCCCCCN(CCCCCCN)C(=O)N(CCCCCCN)CCCCCCNC(=N)N								
1 (≈ 1.32 µM)	2 (≈ 2.64 µM)	1 (≈ 1.32 µM)	2 (≈ 2.64 µM)	4 (≈ 5.28 µM)	8 (≈ 10.6 µM)	32 (≈ 42.2 µM)	64 (≈ 84.4 µM)	CCCCCCN(CCCCCCNC(=N)NCC1CC1)C(=O)N(CCCCCCCCNC(=N)NCC1CC1)CCCCCCNC(=N)NCC1CC1								
2 (≈ 2.37 µM)	2 (≈ 2.37 µM)	1 (≈ 1.19 µM)	16 (≈ 19 µM)	4 (≈ 4.75 µM)	4 (≈ 4.75 µM)	4 (≈ 4.75 µM)	8 (≈ 9.5 µM)	CCCCCCCCN(CCCCCCCCNC(=N)NCC1CC1)C(=O)N(CCCCCCCCNC(=N)NCC1CC1)CCCCCCCCNC(=N)NCC1CC1	Active	Active						
2 (≈ 2.46 µM)	2 (≈ 2.46 µM)	1 (≈ 1.23 µM)	1 (≈ 1.23 µM)	2 (≈ 2.46 µM)	2 (≈ 2.46 µM)	4 (≈ 4.91 µM)	8 (≈ 9.82 µM)	CCCCCCCCN(CCCCCCNC(=N)NCC1CC1)C(=O)N(CCCCCCCCNC(=N)NCC1CC1)CCCCCCCCNC(=N)NCC1CC1								
32 (≈ 61.4 µM)	64 (≈ 123 µM)	8 (≈ 15.4 µM)	128 (≈ 246 µM)	128 (≈ 246 µM)	128 (≈ 246 µM)	> 128	> 128	CNC(=O)N(CCCCCCCCNC(=N)NCC1CC1)CCCCCCCCNC(=N)NCC1CC1								
2 (≈ 2.46 µM)	1 (≈ 1.23 µM)	1 (≈ 1.23 µM)	2 (≈ 2.46 µM)	4 (≈ 4.91 µM)	8 (≈ 9.82 µM)	8 (≈ 9.82 µM)	16 (≈ 19.6 µM)	CCCCCCN(CCCCCCCCNC(=N)NCC1CC1)C(=O)N(CCCCCCCCNC(=N)NCC1CC1)CCCCCCCCNC(=N)NCC1CC1								

Molecule	MIC [1] [µg/mL]	MIC [2] [µg/mL]	MIC [3] [µg/mL]	MIC [4] [µg/mL]	MIC [5] [µg/mL]	MIC [6] [µg/mL]	MIC [7] [µg/mL]	MIC [8] [µg/mL]	Activity [9]	Activity [10]	MBC [11] [µg/mL]	MIC [11] [µg/mL]	MBC [12] [µg/mL]	MIC [12] [µg/mL]	MBC [13] [µg/mL]	MIC [13] [µg/mL]
COLISTIN					0.5	0.5	1	0.5								
CCCCCCCCN(CCCCCCCCNC(=N)NCC1CC1)C(=O)N(CCCCCCCC)CCCCCCCCNC(=N)NCC1CC1.O=C(O)C(F)(F)F	128	32	8	> 128	> 128	128	> 128	> 128								
N=C(N)NCCCCCCCCN(CCCCCCCCNC(=N)N)C(=O)N(CCCCCCCCNC(=N)N)CCCCCCCCNC(=N)NCC1CC1.O=C(O)C(F)(F)F	2	2	1	2	8	4	8	16			8	8	16	8	16	8
N=C(NCCCCCCCCNC(=O)N(CCCCCCCCNC(=N)NCC1CC1)CCCCCCCCNC(=N)NCC1CC1)NCC1CC1.O=C(O)C(F)(F)F	1	8	1	4	8	8	64	64	Active	Active						
CCCCCCCCN(CCCCCCCC)C(=O)N(CCCCCCCCNC(=N)NCC1CC1)CCCCCCCCNC(=N)NCC1CC1.O=C(O)C(F)(F)F	128	128	4	> 128	128	64	128	> 128								
CNC(=O)NCCCCCCCCNC(=N)NCC1CC1.O=C(O)C(F)(F)F	64	64	128	32	128	128	> 128	> 128								
N=C(NCCCCCCCCN(CCCCCCCCNC(=N)NCC1CC1)C(N)=O)NCC1CC1.O=C(O)C(F)(F)F	8	16	2	16	32	32	128	128								
N=C(N)NCCCCCCCCN(CCCCCCCCN)C(=O)N(CCCCCCCCNC(=N)N)CCCCCCCCNC(=N)N	1 (≈ 1.44 µM)	4 (≈ 5.75 µM)	0.25 (≈ 0.36 µM)	1 (≈ 1.44 µM)	2 (≈ 2.88 µM)	8 (≈ 11.5 µM)	16 (≈ 23 µM)	16 (≈ 23 µM)	Active	Active	8 (≈ 11.5 µM)	8 (≈ 11.5 µM)	16 (≈ 23 µM)	16 (≈ 23 µM)	8 (≈ 11.5 µM)	8 (≈ 11.5 µM)
CCCCCCCCN(CCCCCCCC)C(=O)N(CCCCCCCC)CCCCCCCCNC(=N)NCC1CC1.O=C(O)C(F)(F)F	64	128	16	> 128	> 128	> 128	> 128	> 128								
CCCCCCCCCC(=O)N[C@@H](Cc1c[nH]c2ccccc12)C(=O)N[C@H](CC(N)=O)C(=O)N[C@@H](CC(=O)O)C(=O)N[C@@H]1C(=O)NCC(=O)N[C@@H](CCCN)C(=O)N[C@@H](CC(=O)O)C(=O)N[C@H](C)C(=O)N[C@@H](CC(=O)O)C(=O)NCC(=O)N[C@H](CO)C(=O)N[C@@H]([C@H](C)CC(=O)O)C(=O)N[C@@H](CC(=O)c2ccccc2N)C(=O)O[C@@H]1C	1 (≈ 0.617 µM)	1 (≈ 0.617 µM)	0.5 (≈ 0.309 µM)	0.12 (≈ 0.074 µM)												
CN[C@H](CC(C)C)C(=O)N[C@H]1C(=O)N[C@@H](CC(N)=O)C(=O)N[C@H]2C(=O)N[C@H]3C(=O)N[C@H](C(=O)N[C@H](C(=O)O)c4cc(O)cc(O)c4-c4cc3ccc4O)[C@H](O)c3ccc(c(Cl)c3)Oc3cc2cc(c3O[C@@H]2O[C@H](CO)[C@@H](O)[C@H](O)[C@H]2O[C@H]2C[C@](C)(N)[C@H](O)[C@H](C)O2)Oc2ccc(cc2Cl)[C@H]1O [VANCOMYCIN]	0.5 (≈ 0.345 µM)	1 (≈ 0.69 µM)	1 (≈ 0.69 µM)													

Reference: ChEMBL document CHEMBL5154741, “Antibacterial alkylguanidino ureas: Molecular simplification approach, searching for membrane-based MoA” (Eur J Med Chem, 2022)
